Target: T1, estrogen receptor (Homo sapiens, UniProt P03372)
T1 construct: endogenous in cells; host or cells: ECC-1 cells
T1 sequence (P03372 1-595): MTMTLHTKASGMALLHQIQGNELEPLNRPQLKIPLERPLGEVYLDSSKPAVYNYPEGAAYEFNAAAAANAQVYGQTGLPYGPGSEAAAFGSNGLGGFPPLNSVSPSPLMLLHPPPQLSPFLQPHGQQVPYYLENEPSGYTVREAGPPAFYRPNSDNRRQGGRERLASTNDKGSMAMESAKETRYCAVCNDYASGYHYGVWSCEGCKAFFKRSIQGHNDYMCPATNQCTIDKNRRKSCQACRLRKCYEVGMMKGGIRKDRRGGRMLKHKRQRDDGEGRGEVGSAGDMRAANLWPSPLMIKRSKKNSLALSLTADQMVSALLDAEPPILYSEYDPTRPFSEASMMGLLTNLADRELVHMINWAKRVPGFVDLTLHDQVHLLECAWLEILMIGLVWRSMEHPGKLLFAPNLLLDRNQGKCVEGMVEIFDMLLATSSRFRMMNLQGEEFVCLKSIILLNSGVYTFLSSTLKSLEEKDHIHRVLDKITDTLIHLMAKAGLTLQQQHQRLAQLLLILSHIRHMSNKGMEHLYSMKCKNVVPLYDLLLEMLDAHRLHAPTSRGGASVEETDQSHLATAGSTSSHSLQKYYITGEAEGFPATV
Assay: Alkaline phosphatase (AP) assay in ECC-1 cells, agonist mode (no E2) and antagonist mode (500 pM E2)
Assay type: cell-based
Conditions: 3 days, AP activity normalized to 500 pM E2 alone, agonist mode without E2, antagonist mode with 500 pM E2
Protocol: ECC-1 cells were trypsinized and resuspended in hormone-depleted media and plated at a density of 15 k cells per well into a 96-well plate for at least 4 hours. Cells were treated with test compounds in the absence of E2 (for agonist mode) or in the presence of 500 pM E2 (for antagonist mode) for 3 days and plates were subsequently frozen at −80° C. Thawed plates were incubated with a chromogenic substrate of AP, p-nitrophenyl phosphate (Thermo Fisher Scientific), for 40 minutes at 42° C., and absorbances were read at 405 nm. AP activity was normalized to the activity of 500 pM E2 alone.
The compound numbers correspond to the compound numbers of Table 1 and 2. Compounds having an activity designated as “+” provided estrogen receptor agonism having (i) at least 80% increase in the E2-normalized signal in the AP assay (agonist mode) and (ii) no more than 80% reduction in the E2-normalized signal in the AP assay (antagonist mode). Compounds having an activity designated as “++” provided estrogen receptor antagonism having (i) between 10% and 80% increase in the E2-normalized signal in the AP assay (agonist mode) and (ii) between 10% and 80% reduction in the E2-normalized signal in the AP assay (antagonist mode).

Structure (SMILES)	Activity (estrogen receptor modulation, agonism and antagonism)
C[C@@H]1Cc2c([nH]c3ccccc23)[C@@H](c2cnc(C[C@@H]3CCN(CCCF)C3)s2)N1CC(C)(C)F [Example I-43]	++ (estrogen receptor antagonism having (i) between 10% and 80% increase in the E2-normalized signal in the AP assay (agonist mode) and (ii) between 10% and 80% reduction in the E2-normalized signal in the AP assay (antagonist mode))
C[C@@H]1Cc2c([nH]c3ccccc23)[C@@H](c2ncc(CC3CN(CCC(F)F)C3)s2)N1CC(F)(F)F [Example I-39, 5-[[1-(3,3-difluoropropyl)azetidin-3-yl]methyl]-2-[(1S,3R)-3-methyl-2-(2,2,2-trifluoroethyl)-1,3,4,9-tetrahydropyrido[3,4-b]indol-1-yl]thiazole]	++ (estrogen receptor antagonism having (i) between 10% and 80% increase in the E2-normalized signal in the AP assay (agonist mode) and (ii) between 10% and 80% reduction in the E2-normalized signal in the AP assay (antagonist mode))
C[C@@H]1Cc2c([nH]c3ccccc23)[C@@H](c2cnc(C[C@@H]3CCN(CCC(F)F)C3)s2)N1CC(C)(C)F [Example I-51, 2-[[(3S)-1-(3,3-difluoropropyl)pyrrolidin-3-yl]methyl]-5-[(1S,3R)-2-(2-fluoro-2-methyl-propyl)-3-methyl-1,3,4,9-tetrahydropyrido[3,4-b]indol-1-yl]thiazole]	+ (estrogen receptor agonism having (i) at least 80% increase in the E2-normalized signal in the AP assay (agonist mode) and (ii) no more than 80% reduction in the E2-normalized signal in the AP assay (antagonist mode))
Cc1cc(CC2CN(CCCF)C2)sc1[C@@H]1c2[nH]c3ccccc3c2C[C@@H](C)N1CC(C)(C)F [Example I-6, 3-({5-[(1S,3R)-2-(2-fluoro-2-methylpropyl)-3-methyl-1H,2H,3H,4H,9H-pyrido[3,4-b]indol-1-yl]-4-methylthiophen-2-yl}methyl)-1-(3-fluoropropyl)azetidine]	++ (estrogen receptor antagonism having (i) between 10% and 80% increase in the E2-normalized signal in the AP assay (agonist mode) and (ii) between 10% and 80% reduction in the E2-normalized signal in the AP assay (antagonist mode))
CCCN1CC[C@@H](Cc2ncc([C@@H]3c4[nH]c5ccccc5c4C[C@@H](C)N3CC(C)(C)F)s2)C1 [Example I-47]	+ (estrogen receptor agonism having (i) at least 80% increase in the E2-normalized signal in the AP assay (agonist mode) and (ii) no more than 80% reduction in the E2-normalized signal in the AP assay (antagonist mode))
C[C@@H]1Cc2c([nH]c3ccccc23)[C@@H](c2ccc(CC3CN(CCCF)C3)s2)N1CC(F)(F)C(F)F [Example I-27, (1S,3R)-1-(5-((1-(3-fluoropropyl)azetidin-3-yl)methyl)thiophen-2-yl)-3-methyl-2-(2,2,3,3-tetrafluoropropyl)-2,3,4,9-tetrahydro-1H-pyrido[3,4-b]indole]	++ (estrogen receptor antagonism having (i) between 10% and 80% increase in the E2-normalized signal in the AP assay (agonist mode) and (ii) between 10% and 80% reduction in the E2-normalized signal in the AP assay (antagonist mode))
C[C@@H]1Cc2c([nH]c3ccccc23)[C@@H](c2ccc(CC3CN(CCCF)C3)s2)N1CC(F)F [Example I-17, 3-({5-[(1S,3R)-2-(2,2-difluoroethyl)-3-methyl-1H,2H,3H,4H,9H-pyrido[3,4-b]indol-1-yl]thiophen-2-yl}methyl)-1-(3-fluoropropyl)azetidine]	+++ (estrogen receptor antagonism (i) with pIC50 greater than 7.5 and at least a 10% reduction in the E2-normalized signal in the AP assay (antagonist mode); and no more than 10% increase in E2-normalized signal in the AP assay (agonist mode))
CCCN1CC(Cc2cc(F)c([C@@H]3c4[nH]c5ccccc5c4C[C@@H](C)N3CC(C)(C)F)s2)C1 [Example I-11, 3-({4-fluoro-5-[(1S,3R)-2-(2-fluoro-2-methylpropyl)-3-methyl-1H,2H,3H,4H,9H-pyrido[3,4-b]indol-1-yl]thiophen-2-yl}methyl)-1-propylazetidine]	++ (estrogen receptor antagonism having (i) between 10% and 80% increase in the E2-normalized signal in the AP assay (agonist mode) and (ii) between 10% and 80% reduction in the E2-normalized signal in the AP assay (antagonist mode))
C[C@@H]1Cc2c([nH]c3ccccc23)[C@@H](c2ccc(CC3CN(CCCF)C3)s2)N1CC(F)(F)CF [Example I-23, (1S,3R)-1-(5-((1-(3-fluoropropyl)azetidin-3-yl)methyl)thiophen-2-yl)-3-methyl-2-(2,2,3-trifluoropropyl)-2,3,4,9-tetrahydro-1H-pyrido[3,4-b]indole]	++ (estrogen receptor antagonism having (i) between 10% and 80% increase in the E2-normalized signal in the AP assay (agonist mode) and (ii) between 10% and 80% reduction in the E2-normalized signal in the AP assay (antagonist mode))
C[C@@H]1Cc2c([nH]c3ccccc23)[C@@H](c2ccc(CC3CN(CCC#N)C3)s2)N1CC(F)(F)CO [Example I-57]	++ (estrogen receptor antagonism having (i) between 10% and 80% increase in the E2-normalized signal in the AP assay (agonist mode) and (ii) between 10% and 80% reduction in the E2-normalized signal in the AP assay (antagonist mode))
C[C@@H]1Cc2c([nH]c3ccccc23)[C@@H](c2nnc(CC3CN(CCCF)C3)s2)N1CC(C)(C)F [Example I-52, 2-((1S,3R)-2-(2-fluoro-2-methylpropyl)-3-methyl-2,3,4,9-tetrahydro-1H-pyrido[3,4-b]indol-1-yl)-5-((1-(3-fluoropropyl)azetidin-3-yl)methyl)-1,3,4-thiadiazole]	++ (estrogen receptor antagonism having (i) between 10% and 80% increase in the E2-normalized signal in the AP assay (agonist mode) and (ii) between 10% and 80% reduction in the E2-normalized signal in the AP assay (antagonist mode))
C[C@@H]1Cc2c([nH]c3ccccc23)[C@@H](c2cnc(CC3CN(CCCF)C3)s2)N1CC(C)(C)F [Example I-14, 5-[(1S,3R)-2-(2-fluoro-2-methylpropyl)-3-methyl-1H,2H,3H,4H,9H-pyrido[3,4-b]indol-1-yl]-2-{[1-(3-fluoropropyl)azetidin-3-yl]methyl}-1,3-thiazole]	++ (estrogen receptor antagonism having (i) between 10% and 80% increase in the E2-normalized signal in the AP assay (agonist mode) and (ii) between 10% and 80% reduction in the E2-normalized signal in the AP assay (antagonist mode))
C[C@@H]1Cc2c([nH]c3ccccc23)[C@@H](c2ncc(CC3CN(CCC(F)F)C3)s2)N1CC(F)F [Example I-35, 2-[(1S,3R)-2-(2,2-difluoroethyl)-3-methyl-1,3,4,9-tetrahydropyrido[3,4-b]indol-1-yl]-5-[[1-(3,3-difluoropropyl)azetidin-3-yl]methyl]thiazole]	++ (estrogen receptor antagonism having (i) between 10% and 80% increase in the E2-normalized signal in the AP assay (agonist mode) and (ii) between 10% and 80% reduction in the E2-normalized signal in the AP assay (antagonist mode))
CCCN1CC(Cc2cnc([C@@H]3c4[nH]c5ccccc5c4C[C@@H](C)N3CC(F)F)s2)C1 [Example I-32, 2-[(1S,3R)-2-(2,2-difluoroethyl)-3-methyl-1,3,4,9-tetrahydropyrido[3,4-b]indol-1-yl]-5-[(1-propylazetidin-3-yl)methyl]thiazole]	++ (estrogen receptor antagonism having (i) between 10% and 80% increase in the E2-normalized signal in the AP assay (agonist mode) and (ii) between 10% and 80% reduction in the E2-normalized signal in the AP assay (antagonist mode))
CCCN1CC(Cc2cnc([C@@H]3c4[nH]c5ccccc5c4C[C@@H](C)N3CC(F)(F)F)s2)C1 [Example I-37, 2-[(1S,3R)-3-methyl-2-(2,2,2-trifluoroethyl)-1,3,4,9-tetrahydropyrido[3,4-b]indol-1-yl]-5-[(1-propylazetidin-3-yl)methyl]thiazole]	++ (estrogen receptor antagonism having (i) between 10% and 80% increase in the E2-normalized signal in the AP assay (agonist mode) and (ii) between 10% and 80% reduction in the E2-normalized signal in the AP assay (antagonist mode))

From patent US20260055103A1, “2,3,4,9-TETRAHYDRO-1H-PYRIDO[3,4-B]INDOLE DERIVATIVES AS ESTROGEN RECEPTOR MODULATORS FOR THE TREATMENT OF CANCER” (Olema Pharmaceuticals, Inc., priority 2022, published 2026)
